Laboratory results from patent publication US20150044717A1, “DEVICES AND METHODS FOR OBSERVING EUKARYOTIC CELLS WITHOUT CELL WALL” (CENTRE NATIONAL DE LA RECHERCHE SCIENTIFIQUE, priority 2012, published 2015).

System: cytokinetic ring of HeLa cells
Experiment: closure of the cytokinetic ring of cells in egg cups after addition of drugs (fluorescence microscopy)
Format: cell-based, human
Conditions: for ring diameter as a function of time / closing speed: after addition of latrunculin A 1.5 μM
Description: For the experiments, a human HeLa cell line was used. The cells were stably transfected with a plasmid coding for actin monomers tagged with GFP. Cells were cultured in a growth medium containing DMEM with 10% FCS and 2 mM of L-Glutamine. After replating cells, Geneticin (0.5 mg/ml) was added to the medium.
During the experiments, cells were cultured in L-15 with 10% FCS and 2 mM of L-Glutamine.
Synchronized cells were obtained by mitotic shake-off. To have a sufficient number of dividing cells, cells were cultured in flasks of 75 cm^2 surface. The flasks were tapped on a solid surface to detach loosely attached cells, which rounded up before undergoing division. Alternatively, cells were synchronized with classical protocols such as the thymidine block, mitotic block (both Whitfield M L, Mol. Cell. Biol. 2000, 20(12): 4188-4198) or monastrol incubation (Straight A F et al., Science. 2003, 299:1743-1747).
The coverslips with the egg cups were exposed to nitrogen plasma for 30 s and then incubated with a solution of fibronectin (20 μg/ml in phosphate buffered saline (PBS), Sigma Aldrich) for 1 h. The sample could be stored in PBS for some hours. A cylindrically shaped plastic piece was placed in a 50 ml tube. The tube was filled with 6.5 ml of growth medium. The egg cup coverslip was horizontally placed in a tube, supported by the plastic cylinder. The suspension of synchronized cells was added on top of the coverslip. The tube was centrifuged for 5 min at 4000 rpm. The coverslip was carefully removed from the tube and installed in a home-made metallic holder. L-15 medium with 10% FCS and 2 mM L-Glutamine was immediately added. During the experiment the holder was closed by a plastic cover to prevent evaporation.
The drugs were added immediately before the experiment. The inventors used a concentration of 1.5 μM latrunculin A (Sigma Aldrich) (Delanoc-Ayari H. et al., Phys. Rev. Lett. 2004, 93(10): 108102) and 100 μM (−)-blebbistatin (Sigma Aldrich) (Straight A F et al., Science. 2003, 299:1743-1747).
The objective was a Plan Apo 60× objective (oil, 1.40 NA, Nikon). The images were captured and processed with the NIS Elements software (v3.10, SP3, Nikon).

[1] = blebbistatin 100 μM, HeLa cells in egg cups

Row | Structure (SMILES) | cell division (ring diameter as a function of time) [1] | closure of the cytokinetic ring [1] | ring diameter as a function of time / closing speed (HeLa cells in egg cups) | ring diameter as a function of time / closing speed (HeLa cells in egg cups, listed as latrunculin A) | cell division (in the presence of latrunculin A 1.5 μM, HeLa cells in egg cups) | closure of the cytokinetic ring (latrunculin A 1.5 μM, HeLa cells with GFP-actin in egg cups)
1 | Cc1ccc2c(c1)C(=O)C1(O)CCN(c3ccccc3)C1=N2 (single isomer, unassigned; (-)) [Blebbistatin, (−)-blebbistatin] | slows down and stops the division | the closure was slowed down and failed |  |  |  | 
2 | C/C1=C/C(=O)O[C@@H]2C[C@@H](CC[C@H](C)/C=C\C=C\CC1)O[C@@](O)([C@@H]1CSC(=O)N1)C2 [Latrunculin A, latrunculin A] |  |  | a slight increase in closing speed, then a slight expansion of the ring | the speed is first slightly increasing, then the ring becomes larger again until the signal vanishes | Cells did not divide | the ring does not close completely
